The values below are quoted from earlier work in publication PMC10166914, “GTN057, a komaroviquinone derivative, induced myeloma cells' death in vivo and inhibited c‐MET tyrosine kinase” (Cancer Medicine, 2023).

In this series the test system is MUM24 cells. Set-up: method as in PMID 28882484. The note with it: read-out: IC50 antiproliferative activity; cited from earlier work.

Consider `COc1c(O)c2c(c(O)c1C(C)C)C(=O)CC1C(C)(C)CCC[C@]1(O)C2` (stereo partly shown) [GTN054], for which the IC50 (usually the concentration that inhibits the measured activity by half) is 6.13 µM.
